Source: patent publication US6784155B1, “Inhibitor and stimulator of stem cell proliferation and uses thereof” (Wellstat Therapeutics Corporation, priority 1996, dated 2004)
No end group written: not given here.

Assays:
CFU-GEMM = CFU-GEMM cycling assay, mobilized human peripheral blood; assay type: cell-based
Description: Peripheral blood was obtained from breast cancer patients undergoing peripheral stem cell mobilization with cyclophosphamide and G-CSF according to standard protocols. Red blood cells were removed with FicolU Hypaque (cells were diluted 1:1 with IMDM and 20 ml layered on top of 16 ml Ficoll and centrifuged at 800 g for 30 minutes; mononuclear cells were removed from the interphase and washed twice in IMDM). In one case mononuclear cells were stored frozen in liquid nitrogen before assay. The mononuclear cells were plated for the CFU-GEMM cycling assay as in Example 26 except that 2.5-5×10^5 cells were plated per dish.

[1] = Distribution of ubiquitin fusion proteins between soluble fraction and precipitate of E. coli lysate (SDS-PAGE); assay type: physicochemical; settings: after centrifugation of the bacterial lysate
Description: To obtain protein for assay, 100 ml starter cultures in 250 ml shake flasks were grown from single colonies by overnight incubation (16-20 hours) in 2×YT medium with ampicillin (100 μg/ml), neomycin (10 μg/ml) and 1% glucose. Shaker flask cultures were maintained at 30° C. and 250 rpm in a New Brunswick environmental shaker incubator. The next morning the culture was diluted to liter with medium Cells were induced by IPTG addition to 1 mM (final dilution) at OD600=0.5 and harvested at OD600=0.8 by centrifugation. The harvested cells were resuspended in hypotonic lysis buffer (100 μl of 50 mM Tris, pH 10.0). The bacterial cells were lysed by subjecting the suspension to three cycles of freeze-thaw (dry ice-ethanol bath for freezing and 60° C. for thawing). The suspension was then sonicated for 10 min and centrifuged at 12,000 g for 10 min. The resulting supernatant was designated as “S1”. The cell pellet was resuspended in 50 mM Tris, pH10 and 2×SDS tricine loading buffer (Novex, San Diego, Calif.) (1:1). The mixture was then heated at 95° C. for 15 min and centrifuged at 12,000 g for 10 min. The portion of the precipitate capable of being resolubilized in this manner was called “P1”. The portion of the precipitate derived from the remaining pellet was called “P2”. P2 was resuspended in loading buffer as for P1. Samples from S1, P1 and P2 were analyzed by SDS-PAGE. […]

[2] = tested on: cobblestone area forming cells (CAFC); experiment: Cobblestone assay (CAFC); assay type: cell-based, mouse
Description: The cobblestone assay was conducted as described by Ploemacher and colleagues (Ploemacher et al., Blood 74:2755-63, 1989; van der Sluijs et al., Exp. Hematol. 18:893-6, 1990; Ploemacher et al., Blood 78:2527-33, 1991; Ploemacher et al., J. Tiss. Cult. Meth. 13:63-68, 1991; Down and Ploemacher, Exp. Hematol. 21:213-21, 1993). The cobblestone assay measures the appearance of groups of cells (or “cobblestones”) within a monolayer of stromal cells. Very primitive stem cells will not form colonies in soft agar but do form cobblestones in the presence of a stromal monolayer. The cells which form cobblestones are referred to as “cobblestone area forming cells” (CAFC). The more differentiated (e.g., GM-CFC) progenitors form transient cobblestones which appear and then disappear within the first few weeks of culture whereas more primitive stem cells (e.g., long-term repopulating cells) form cobblestones which appear only after 4-5 weeks of culture. Thus, CAFC forming on days 7-14 of culture are enriched in CFU-GM, CAFC forming on […] are enriched in CFU-MIX, and CAFC forming on days 28-35 are enriched in long-term repopulating cells. […]
The frequency of cobblestone area forming cells (CAFC) was calculated as previously described (Ploemacher et al., Blood 78:2527-33, 1991; Ploemacher et al., J. Tiss. Cult. Meth. 13:63-68, 1991; Breems et al., Leukemia 8:1095-104, 1994). […]

CFU-MIX [3] = experiment: Stimulation of cycling of quiescent murine stem cells, CFU-MIX cycling assay in vitro; assay type: cell-based, mouse; settings: Table 44, 100 ng/ml, alone
CFU-MIX [4] = experiment: Stimulation of cycling of quiescent murine stem cells after i.v. administration; assay type: in vivo; settings: Table 43, untreated B6D2F1 mice, 150 μg/mouse i.v., marrow 24 hours later
Description: Human alpha hemoglobin was injected i.v. into untreated B6D2F1 mice. 24 hours later, the mice were sacrificed, bone marrow collected from femurs and the CFU-MIX assay conducted as in Example 24.

Row | Substance | % Kill (CFU-GEMM; Table 35, Patient #2, 10 ng/ml) [%] | % Kill (CFU-GEMM; Table 36, Patient #3, cells stored frozen before assay, 0.1 ng/ml) [%] | % Kill (CFU-GEMM; Table 36, Patient #3, cells stored frozen before assay, 1.0 ng/ml) [%] | % Kill (CFU-GEMM; Table 36, Patient #3, cells stored frozen before assay, 10 ng/ml) [%] | fraction of bacterial lysate containing the peptide [1] | % Kill (CFU-GEMM; Table 34, Patient #1, 100 ng/ml) [%] | % Kill (CFU-GEMM; Table 35, Patient #2, concentration printed only as (ng/ml)) [%] | increase of the proportion of late-forming CAFC ([2]; cycling stem cells (testosterone propionate treated B6D2F1), 100 ng/10^6 cells, 4 hours) | effect on CAFC of non-cycling stem cells ([2]; non-cycling stem cells) | % Kill (CFU-MIX [3]) [%] | % Kill (CFU-MIX [4]) [%]
1 | FPHFDLSHGSAQV [Peptide 43-55, amino acids 43-55 of human alpha hemoglobin] | 0 | 23 | 0 | 15 | contained in the soluble fraction | – | – | – | – | – | –
2 | Human alpha chain: purified, non-recombinant human alpha hemoglobin chain isolated by reversed-phase HPLC | – | – | – | – | – | 0 | 2 | approximately 5 fold | no effect | 48 | 48
